# Measured values reported in patent publication US12723063B2, “GIPR-agonist compounds” (Eli Lilly and Company, priority 2019, dated 2026).
# *1 amine or outer side, *2 acyl side, *3 side chain or, on linkers, in order; H or OH if unused. Where a SMILES comes first, the peptide text is derived from it. Side-chain parts run from the residue outwards. [ ]: non-standard residue; d: D form. The star is where a group is joined. C20 diacid = O=C(O)CCCCCCCCCCCCCCCCCCC(=O)*; αMePhe(2-F) = C[C@](N)(Cc1ccccc1F)C(=O)O; γGlu = O=C(O)[C@H](CCC(=O)[*:2])N[*:1]; 4Pal = N[C@@H](Cc1ccncc1)C(=O)O; αMeL = CC(C)C[C@](C)(N)C(=O)O; Orn = NCCC[C@H](N)C(=O)O; AEEA = NCCOCCOCC(=O)O; Aib = CC(C)(N)C(=O)O
# Legend:
# [1] = biological target: T1, human glucose-dependent insulinotropic peptide receptor (GIPR) (Homo sapiens, UniProt P48546); assay: cAMP functional assay (HTRF) in HEK293 cells in presence of 0.1% casein; type: cell-based; settings: HEK293 cells expressing human GIPR, geometric mean, read-out: hGIPR cAMP Rel EC50 nM (SEM, n)
# T1 construct: expressed in transfected cells; host or cells: HEK293
# T1 sequence (P48546 22-466): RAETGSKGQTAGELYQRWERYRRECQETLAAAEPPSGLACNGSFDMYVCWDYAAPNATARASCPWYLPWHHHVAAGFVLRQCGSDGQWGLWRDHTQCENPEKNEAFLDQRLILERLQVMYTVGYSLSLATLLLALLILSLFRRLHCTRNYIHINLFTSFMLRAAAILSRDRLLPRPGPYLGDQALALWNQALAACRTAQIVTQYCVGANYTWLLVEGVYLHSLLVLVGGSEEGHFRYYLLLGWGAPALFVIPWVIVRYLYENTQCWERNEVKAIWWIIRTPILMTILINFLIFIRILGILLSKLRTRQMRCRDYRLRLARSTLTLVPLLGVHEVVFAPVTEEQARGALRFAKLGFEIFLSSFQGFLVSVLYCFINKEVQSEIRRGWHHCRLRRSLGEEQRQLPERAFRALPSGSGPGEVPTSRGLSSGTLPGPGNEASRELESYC
# [2] = biological target: T2, human glucagon receptor (GcgR) (Homo sapiens, UniProt P47871); assay: as above; type: cell-based; settings: HEK293 cells expressing human GcgR, geometric mean, read-out: hGcgR cAMP Rel EC50 nM (SEM, n)
# T2 construct: expressed in transfected cells; host or cells: HEK293
# T2 sequence (P47871 26-477): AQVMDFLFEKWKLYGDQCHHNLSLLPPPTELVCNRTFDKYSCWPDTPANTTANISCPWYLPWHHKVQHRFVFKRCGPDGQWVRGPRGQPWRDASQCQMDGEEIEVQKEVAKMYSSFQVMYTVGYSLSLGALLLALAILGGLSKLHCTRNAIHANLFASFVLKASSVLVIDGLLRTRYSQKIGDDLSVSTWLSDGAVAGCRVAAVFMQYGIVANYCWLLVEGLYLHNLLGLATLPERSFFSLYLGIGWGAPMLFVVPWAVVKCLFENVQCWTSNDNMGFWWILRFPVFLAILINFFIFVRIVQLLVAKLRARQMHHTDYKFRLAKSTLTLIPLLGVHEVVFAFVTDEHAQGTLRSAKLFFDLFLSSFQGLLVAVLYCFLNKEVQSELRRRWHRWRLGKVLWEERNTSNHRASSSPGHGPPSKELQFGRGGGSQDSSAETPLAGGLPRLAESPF
structure (smiles),measurement,setting,value
CC[C@H](C)[C@H](NC(=O)[C@H](CO)NC(=O)[C@H](Cc1ccc(O)cc1)NC(=O)[C@H](CC(=O)O)NC(=O)[C@H](CO)NC(=O)[C@@H](NC(=O)[C@](C)(Cc1ccccc1F)NC(=O)[C@@H](NC(=O)CNC(=O)[C@H](CCC(=O)O)NC(=O)C(C)(C)NC(=O)[C@@H](N)Cc1ccc(O)cc1)[C@@H](C)O)[C@@H](C)CC)C(=O)N[C@@H](CC(C)C)C(=O)N[C@@H](CC(C)C)C(=O)N[C@@H](CC(=O)O)C(=O)N[C@@H](CCCCN)C(=O)N[C@H](C(=O)N[C@@H](Cc1c[nH]cn1)C(=O)N[C@@H](CCC(N)=O)C(=O)NC(C)(C)C(=O)N[C@@H](CC(=O)O)C(=O)N[C@@H](Cc1ccccc1)C(=O)N[C@H](C(=O)N[C@@H](CCC(=O)O)C(=O)N[C@@H](Cc1ccncc1)C(=O)N[C@@H](CCCCNC(=O)COCCOCCNC(=O)COCCOCCNC(=O)CC[C@H](NC(=O)CCCCCCCCCCCCCCCCCCC(=O)O)C(=O)O)C(=O)N[C@@H](CC(C)C)C(=O)N[C@@H](CCC(=O)O)C(=O)NCC(=O)NCC(=O)N1CCC[C@H]1C(=O)N[C@@H](CO)C(=O)N[C@@H](CO)C(=O)NCC(=O)N[C@@H](C)C(=O)N1CCC[C@H]1C(=O)N1CCC[C@H]1C(=O)N1CCC[C@H]1C(=O)N[C@@H](CO)C(N)=O)C(C)C)[C@@H](C)CC [Example 119] (H-Y[Aib]EGT[αMePhe(2-F)]ISDYSILLDKIHQ[Aib]DFVE[4Pal]K([AEEA-AEEA-γGlu-C20 diacid])LEGGPSSGAPPPS-NH2),EC50,[1],0.022 nM
same,EC50,[2],> 5000 nM
CC[C@H](C)[C@H](NC(=O)[C@H](CO)NC(=O)[C@H](Cc1ccc(O)cc1)NC(=O)[C@H](CC(=O)O)NC(=O)[C@H](CO)NC(=O)[C@@H](NC(=O)[C@](C)(Cc1ccccc1F)NC(=O)[C@@H](NC(=O)CNC(=O)[C@H](CCC(=O)O)NC(=O)C(C)(C)NC(=O)[C@@H](N)Cc1ccc(O)cc1)[C@@H](C)O)[C@@H](C)CC)C(=O)N[C@@H](CC(C)C)C(=O)N[C@@H](CC(C)C)C(=O)N[C@@H](CC(=O)O)C(=O)N[C@@H](CCCCN)C(=O)N[C@H](C(=O)N[C@@H](Cc1c[nH]cn1)C(=O)N[C@@H](CCC(N)=O)C(=O)NC(C)(C)C(=O)N[C@@H](CC(=O)O)C(=O)N[C@@H](Cc1ccccc1)C(=O)N[C@H](C(=O)N[C@@H](CCC(=O)O)C(=O)N[C@@H](Cc1ccncc1)C(=O)N[C@@H](CCCCNC(=O)COCCOCCNC(=O)COCCOCCNC(=O)CC[C@H](NC(=O)CCCCCCCCCCCCCCCCCCC(=O)O)C(=O)O)C(=O)N[C@@H](CC(C)C)C(=O)N[C@@H](CCC(=O)O)C(=O)N[C@@H](C)C(=O)NCC(=O)N1CCC[C@H]1C(=O)N[C@@H](CO)C(=O)N[C@@H](CO)C(=O)NCC(=O)N[C@@H](C)C(=O)N1CCC[C@H]1C(=O)N1CCC[C@H]1C(=O)N1CCC[C@H]1C(=O)N[C@@H](CO)C(N)=O)C(C)C)[C@@H](C)CC [Example 120] (H-Y[Aib]EGT[αMePhe(2-F)]ISDYSILLDKIHQ[Aib]DFVE[4Pal]K([AEEA-AEEA-γGlu-C20 diacid])LEAGPSSGAPPPS-NH2),EC50,[1],0.0228 nM
same,EC50,[2],> 5000 nM
CC[C@H](C)[C@H](NC(=O)[C@H](CO)NC(=O)[C@H](Cc1ccc(O)cc1)NC(=O)[C@H](CC(=O)O)NC(=O)[C@H](CO)NC(=O)[C@@H](NC(=O)[C@](C)(Cc1ccccc1F)NC(=O)[C@@H](NC(=O)CNC(=O)[C@H](CCC(=O)O)NC(=O)C(C)(C)NC(=O)[C@@H](N)Cc1ccc(O)cc1)[C@@H](C)O)[C@@H](C)CC)C(=O)N[C@@H](CC(C)C)C(=O)N[C@@H](CC(C)C)C(=O)N[C@@H](CC(=O)O)C(=O)N[C@@H](CCCCN)C(=O)N[C@H](C(=O)N[C@@H](Cc1c[nH]cn1)C(=O)N[C@@H](CCC(N)=O)C(=O)NC(C)(C)C(=O)N[C@@H](CC(=O)O)C(=O)N[C@@H](Cc1ccccc1)C(=O)N[C@H](C(=O)N[C@@H](CCC(=O)O)C(=O)N[C@@H](Cc1ccncc1)C(=O)N[C@@H](CCCCNC(=O)COCCOCCNC(=O)COCCOCCNC(=O)CC[C@H](NC(=O)CCCCCCCCCCCCCCCCCCC(=O)O)C(=O)O)C(=O)N[C@@H](CC(C)C)C(=O)N[C@@H](CCC(=O)O)C(=O)N[C@@H](CCC(N)=O)C(=O)NCC(=O)N1CCC[C@H]1C(=O)N[C@@H](CO)C(=O)N[C@@H](CO)C(=O)NCC(=O)N[C@@H](C)C(=O)N1CCC[C@H]1C(=O)N1CCC[C@H]1C(=O)N1CCC[C@H]1C(=O)N[C@@H](CO)C(N)=O)C(C)C)[C@@H](C)CC [Example 121] (H-Y[Aib]EGT[αMePhe(2-F)]ISDYSILLDKIHQ[Aib]DFVE[4Pal]K([AEEA-AEEA-γGlu-C20 diacid])LEQGPSSGAPPPS-NH2),EC50,[1],0.0196 nM
same,EC50,[2],> 5000 nM
CC[C@H](C)[C@H](NC(=O)[C@H](CCCN)NC(=O)[C@H](CC(=O)O)NC(=O)[C@H](CC(C)C)NC(=O)[C@](C)(CC(C)C)NC(=O)[C@@H](NC(=O)[C@H](CO)NC(=O)[C@H](Cc1ccc(O)cc1)NC(=O)[C@H](CC(=O)O)NC(=O)[C@H](CO)NC(=O)[C@@H](NC(=O)[C@H](Cc1ccccc1)NC(=O)[C@@H](NC(=O)CNC(=O)[C@H](CCC(=O)O)NC(=O)C(C)(C)NC(=O)[C@@H](N)Cc1ccc(O)cc1)[C@@H](C)O)[C@@H](C)CC)[C@@H](C)CC)C(=O)N[C@@H](Cc1c[nH]cn1)C(=O)N[C@@H](CCC(N)=O)C(=O)NC(C)(C)C(=O)N[C@@H](CCC(=O)O)C(=O)N[C@@H](Cc1ccccc1)C(=O)N[C@H](C(=O)N[C@@H](CCC(=O)O)C(=O)N[C@@H](Cc1ccncc1)C(=O)N[C@@H](CCCCNC(=O)COCCOCCNC(=O)COCCOCCNC(=O)CC[C@H](NC(=O)CCCCCCCCCCCCCCCCCCC(=O)O)C(=O)O)C(=O)N[C@@H](CC(C)C)C(=O)N[C@@H](CCC(=O)O)C(=O)N[C@@H](C)C(=O)NCC(=O)N1CCC[C@H]1C(=O)N[C@@H](CO)C(=O)N[C@@H](CO)C(=O)NCC(=O)N[C@@H](C)C(=O)N1CCC[C@H]1C(=O)N1CCC[C@H]1C(=O)N1CCC[C@H]1C(=O)N[C@@H](CO)C(N)=O)C(C)C [Example 122] (H-Y[Aib]EGTFISDYSI[αMeL]LD[Orn]IHQ[Aib]EFVE[4Pal]K([AEEA-AEEA-γGlu-C20 diacid])LEAGPSSGAPPPS-NH2),EC50,[1],0.01 nM
same,EC50,[2],> 5000 nM
